# Laboratory results reported in ChEMBL document CHEMBL1201862, “PubChem BioAssay data set” (2004).
# The source made the active and inactive calls.
# What was measured:
# H4 = test: Luminescence Cell-Based Dose Response HTS to Identify Activators of 5'UTR Stem-Loop Driven Prion Protein mRNA Translation in H4 Neuroglioblastoma Cells. [Related pubchem assays: 1829 (Project Summary), 1814 (Primary HTS)]; assay type: functional; details: Homo sapiens
# [1] = Luminescence Cell-Based Dose Response HTS to Identify Activators of Luciferase Translation or Activity in H4 […] Cells. [Related pubchem assays: 1829 (Project Summary), 1814 (Primary HTS)]; assay type: functional
# [2] = Luminescence Cell-Based Dose Confirmation HTS to Identify Activators of 5'UTR Stem-Loop Driven Alpha-Synuclein mRNA Translation in H4 Neuroglioblastoma Cells. [Related pubchem assays: 1829 (Project Summary), 1814 (Primary HTS)]; assay type: functional
# [3] = target: Heat shock protein HSP 90-alpha (Homo sapiens, UniProt P07900); assay type: functional, organism-based
# Cytochrome P450 2C9 [4] = target: T1, Cytochrome P450 2C9 (Homo sapiens, UniProt P11712)
# T1 sequence (P11712 whole entry): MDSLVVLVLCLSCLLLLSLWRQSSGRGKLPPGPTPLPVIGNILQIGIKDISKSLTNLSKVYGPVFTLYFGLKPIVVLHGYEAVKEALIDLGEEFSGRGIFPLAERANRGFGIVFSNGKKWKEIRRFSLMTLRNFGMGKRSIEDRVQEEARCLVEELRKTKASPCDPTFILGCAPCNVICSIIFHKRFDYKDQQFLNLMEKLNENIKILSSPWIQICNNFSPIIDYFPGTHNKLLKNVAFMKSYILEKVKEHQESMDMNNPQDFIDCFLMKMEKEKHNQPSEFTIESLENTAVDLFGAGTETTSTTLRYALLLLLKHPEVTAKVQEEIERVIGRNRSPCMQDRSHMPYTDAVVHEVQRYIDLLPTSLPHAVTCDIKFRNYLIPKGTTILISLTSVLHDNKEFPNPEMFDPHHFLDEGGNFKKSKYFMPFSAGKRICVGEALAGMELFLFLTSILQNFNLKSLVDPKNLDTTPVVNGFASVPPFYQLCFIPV
# [5] = target: T2, Heat shock factor protein 1 (Mus musculus, UniProt P38532); test: enhancement of HSF1-driven luciferase signal – cell-based, NIH3T3, luminescence, dose retest, confirmation (AID 435004); assay type: functional;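 further: stress induced by proteasome inhibitor MG132 added 30 min after compound; luciferase reporter driven by HSF1 response element in NIH3T3 cells; actives raise luminescence as potentiators of the MG132 stress response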
# T2 sequence (P38532 whole entry): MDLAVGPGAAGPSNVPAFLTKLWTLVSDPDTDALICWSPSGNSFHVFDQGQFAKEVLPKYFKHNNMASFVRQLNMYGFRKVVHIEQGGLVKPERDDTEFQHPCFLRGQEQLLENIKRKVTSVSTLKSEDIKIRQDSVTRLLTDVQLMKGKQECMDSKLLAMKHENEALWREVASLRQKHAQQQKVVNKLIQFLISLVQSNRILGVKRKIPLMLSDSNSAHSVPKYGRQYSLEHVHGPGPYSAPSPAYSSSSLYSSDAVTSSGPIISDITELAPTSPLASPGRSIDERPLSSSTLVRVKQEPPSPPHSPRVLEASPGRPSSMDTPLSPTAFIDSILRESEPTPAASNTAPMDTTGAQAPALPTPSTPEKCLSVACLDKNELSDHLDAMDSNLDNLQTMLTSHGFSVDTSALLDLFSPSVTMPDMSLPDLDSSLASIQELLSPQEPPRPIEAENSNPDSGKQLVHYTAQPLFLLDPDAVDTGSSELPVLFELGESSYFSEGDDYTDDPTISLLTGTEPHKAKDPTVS
# [6] = target: T3, Polyadenylate-binding protein 1 (Homo sapiens, UniProt P11940); test: MLLE binding blockers, Cy5 peptide tracer – biochemical, fluorescence polarization, Cy5-PAM2 peptide, secondary, miRNA deadenylation inhibitor project, dose response (AID 602260); assay type: functional; details: read-out: IC50_Mean
# T3 sequence (P11940 whole entry): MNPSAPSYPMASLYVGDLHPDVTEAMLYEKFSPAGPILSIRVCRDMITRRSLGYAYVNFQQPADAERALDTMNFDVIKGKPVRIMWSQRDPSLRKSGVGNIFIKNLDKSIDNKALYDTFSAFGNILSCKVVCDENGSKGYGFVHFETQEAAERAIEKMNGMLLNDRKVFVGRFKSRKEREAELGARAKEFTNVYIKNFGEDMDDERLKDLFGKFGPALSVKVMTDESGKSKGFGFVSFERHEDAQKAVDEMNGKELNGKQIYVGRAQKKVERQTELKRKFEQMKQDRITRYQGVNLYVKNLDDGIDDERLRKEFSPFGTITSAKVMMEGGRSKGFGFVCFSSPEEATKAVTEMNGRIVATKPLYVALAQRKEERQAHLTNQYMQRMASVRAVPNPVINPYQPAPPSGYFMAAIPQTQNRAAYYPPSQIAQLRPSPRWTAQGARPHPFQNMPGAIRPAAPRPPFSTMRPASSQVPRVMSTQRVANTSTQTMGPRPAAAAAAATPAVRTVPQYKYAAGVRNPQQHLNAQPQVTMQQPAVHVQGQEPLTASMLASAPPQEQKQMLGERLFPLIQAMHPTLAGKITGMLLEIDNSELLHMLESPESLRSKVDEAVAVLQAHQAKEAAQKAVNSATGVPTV
# Nonstructural protein 1 = Nonstructural protein 1 (Influenza A virus, UniProt Q194T2); assay type: functional, Influenza A virus (A/California/07/2009(H1N1))
# Nonstructural protein 1, sequence (Q194T2 whole entry, the tested form may be a part): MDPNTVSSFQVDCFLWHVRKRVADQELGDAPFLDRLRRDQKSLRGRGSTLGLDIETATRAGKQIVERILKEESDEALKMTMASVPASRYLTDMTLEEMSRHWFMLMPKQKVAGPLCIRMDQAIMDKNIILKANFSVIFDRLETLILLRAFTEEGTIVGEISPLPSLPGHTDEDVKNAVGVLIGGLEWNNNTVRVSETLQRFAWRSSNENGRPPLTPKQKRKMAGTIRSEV
# [7] = target: T3, Polyadenylate-binding protein 1; test: MLLE domain peptide-binding blockers, IC50 – biochemical, fluorescence polarization, FITC-PAM2 peptide, dose response (AID 602259); assay type: functional; details: read-out: IC50_Mean
# [8] = microbe, parasite or virus in culture; assay type: functional; details: Mycobacterium tuberculosis
# [9] = Trypanosoma cruzi growth suppression in host cells – NIH3T3 host cells, beta-gal luminescence, confirmation (AID 2044); assay type: functional, cell-based;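 further: intracellular parasites grown in NIH/3T3 mouse fibroblasts as host cells; luminescent beta-galactosidase reporter signal from transgenic T. cruzi replicating inside host cells; inhibitors lower the luminescence signal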
# [10] = NIH3T3 cell viability loss – ATP luminescence, mouse fibroblasts, counter-screen, dose response (AID 2010); assay type: functional, cell-based;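 further: cells exposed to compound for about 90 hours before reading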
# [11] = viability loss in THP-1 monocytes – THP-1 cells, cytotoxicity control for Vif-APOBEC3G degradation inhibitor project, dose response (AID 1117359); assay type: functional; details: THP-1
# [12] = viability of uninfected HEp-2 cells – cell-based, HTS, cytotoxicity control for RSV inhibitor project, dose response (AID 2410); assay type: functional; details: human respiratory syncytial virus
# [13] = system: Streptococcus sp. 'group A'; test: Streptococcus pyogenes SK(-)GAS viability under kanamycin – luminescence, BacTiterGlo, confirmation, counter-screen for streptokinase expression inhibitor project, dose response (AID 1900); assay type: functional, organism-based
# Streptococcus = test: GAS UMAA2166 growth inhibition – luminescence, BacTiterGlo, counter-screen for streptokinase expression inhibitor project, dose response (AID 1915); assay type: functional, organism-based;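 further: potency for reduction of bacterial viability or growth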
# Cytochrome P450 1A2 = target: T4, Cytochrome P450 1A2 (Homo sapiens, UniProt P05177);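 further: PubChem cytochrome P450 panel assay, CYP1A2 panel member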
# T4 sequence (P05177 whole entry): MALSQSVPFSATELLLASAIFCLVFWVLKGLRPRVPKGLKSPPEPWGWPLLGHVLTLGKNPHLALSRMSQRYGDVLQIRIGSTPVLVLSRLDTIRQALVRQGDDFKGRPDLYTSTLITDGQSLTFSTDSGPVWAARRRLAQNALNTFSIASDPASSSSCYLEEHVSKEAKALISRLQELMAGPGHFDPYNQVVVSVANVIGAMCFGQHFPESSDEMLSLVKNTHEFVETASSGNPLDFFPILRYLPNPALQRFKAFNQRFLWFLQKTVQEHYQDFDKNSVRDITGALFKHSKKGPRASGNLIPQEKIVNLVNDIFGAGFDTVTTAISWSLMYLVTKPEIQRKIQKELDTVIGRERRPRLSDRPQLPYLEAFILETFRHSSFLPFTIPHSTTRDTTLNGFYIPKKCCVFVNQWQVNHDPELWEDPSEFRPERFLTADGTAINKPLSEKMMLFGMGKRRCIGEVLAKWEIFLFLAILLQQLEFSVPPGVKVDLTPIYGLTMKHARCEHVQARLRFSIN
# [14] = viability loss in HeLa cells – cytotoxicity control for MgcRacGAP inhibitor project, dose response (AID 624300); assay type: functional
# [15] = target: T5, Rac GTPase-activating protein 1 (Homo sapiens, UniProt Q9H0H5); test: blockers of MgcRacGAP-driven Rac1 GTP hydrolysis – biochemical, ADP Hunter fluorescence, primary and confirmatory, confirmation (AID 624330); assay type: functional
# T5 sequence (Q9H0H5 whole entry): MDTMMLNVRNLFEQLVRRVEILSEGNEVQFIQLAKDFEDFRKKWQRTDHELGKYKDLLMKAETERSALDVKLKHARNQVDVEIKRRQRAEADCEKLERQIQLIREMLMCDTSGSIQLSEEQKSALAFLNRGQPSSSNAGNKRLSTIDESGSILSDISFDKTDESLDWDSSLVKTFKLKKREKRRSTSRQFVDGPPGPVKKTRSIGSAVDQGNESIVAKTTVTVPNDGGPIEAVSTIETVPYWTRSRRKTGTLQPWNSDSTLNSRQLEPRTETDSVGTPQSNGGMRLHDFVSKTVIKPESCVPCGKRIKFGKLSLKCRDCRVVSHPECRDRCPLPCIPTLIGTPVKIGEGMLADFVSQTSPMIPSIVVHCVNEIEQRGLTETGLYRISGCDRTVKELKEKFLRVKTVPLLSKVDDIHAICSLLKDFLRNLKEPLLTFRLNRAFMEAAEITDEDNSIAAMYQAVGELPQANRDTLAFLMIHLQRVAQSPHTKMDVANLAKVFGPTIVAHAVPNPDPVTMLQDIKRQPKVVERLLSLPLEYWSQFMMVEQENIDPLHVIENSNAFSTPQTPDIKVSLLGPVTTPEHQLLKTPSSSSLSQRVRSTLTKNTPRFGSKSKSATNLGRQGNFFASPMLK
# Cytochrome P450 2D6 = Cytochrome P450 2D6 (Homo sapiens, UniProt P10635);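 further: CYP2D6 member of a cytochrome P450 panel assay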
# Cytochrome P450 2D6, sequence (P10635 whole entry): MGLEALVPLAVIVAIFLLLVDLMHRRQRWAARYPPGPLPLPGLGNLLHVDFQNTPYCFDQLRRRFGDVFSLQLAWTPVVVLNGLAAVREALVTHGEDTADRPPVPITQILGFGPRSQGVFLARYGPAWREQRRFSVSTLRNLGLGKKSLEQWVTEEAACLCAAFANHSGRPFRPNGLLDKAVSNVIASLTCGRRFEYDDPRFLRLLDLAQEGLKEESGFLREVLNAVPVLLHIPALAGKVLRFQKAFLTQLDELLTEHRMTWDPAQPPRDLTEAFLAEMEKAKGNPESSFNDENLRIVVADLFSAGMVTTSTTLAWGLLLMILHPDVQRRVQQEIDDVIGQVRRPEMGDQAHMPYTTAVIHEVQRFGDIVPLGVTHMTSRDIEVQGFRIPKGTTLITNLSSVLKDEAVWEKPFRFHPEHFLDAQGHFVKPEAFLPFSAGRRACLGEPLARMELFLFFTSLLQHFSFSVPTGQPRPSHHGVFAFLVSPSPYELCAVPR
# Cytochrome P450 2C19 = Cytochrome P450 2C19 (Homo sapiens, UniProt P33261); test: Cytochrome panel assay with activity outcomes. Panel member name: p450-cyp2c19 Compounds with AC50 equal or less than 10 uM are considered active; assay type: functional; details: read-out: AC50
# Cytochrome P450 2C19, sequence (P33261 whole entry): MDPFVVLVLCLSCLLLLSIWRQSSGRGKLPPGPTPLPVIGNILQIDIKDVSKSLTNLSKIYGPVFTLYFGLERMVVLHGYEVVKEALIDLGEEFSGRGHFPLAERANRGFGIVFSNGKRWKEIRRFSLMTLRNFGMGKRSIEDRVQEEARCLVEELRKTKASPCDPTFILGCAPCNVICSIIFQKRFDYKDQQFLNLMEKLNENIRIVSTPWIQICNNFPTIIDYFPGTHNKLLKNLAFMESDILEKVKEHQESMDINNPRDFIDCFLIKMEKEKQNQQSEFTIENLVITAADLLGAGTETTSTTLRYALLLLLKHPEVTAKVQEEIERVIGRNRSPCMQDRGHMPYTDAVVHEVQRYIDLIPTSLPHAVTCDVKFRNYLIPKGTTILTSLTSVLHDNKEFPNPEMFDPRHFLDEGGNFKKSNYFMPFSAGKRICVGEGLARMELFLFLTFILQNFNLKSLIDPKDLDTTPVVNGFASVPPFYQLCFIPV
# [16] = target: FAD-linked sulfhydryl oxidase ALR (Homo sapiens, UniProt P55789); test: ALR-catalysed DTT oxidation blockers – biochemical, H2O2 detection, luminescence, cherry-pick, dose response (AID 493248)
# FAD-linked sulfhydryl oxidase ALR, sequence (P55789 whole entry): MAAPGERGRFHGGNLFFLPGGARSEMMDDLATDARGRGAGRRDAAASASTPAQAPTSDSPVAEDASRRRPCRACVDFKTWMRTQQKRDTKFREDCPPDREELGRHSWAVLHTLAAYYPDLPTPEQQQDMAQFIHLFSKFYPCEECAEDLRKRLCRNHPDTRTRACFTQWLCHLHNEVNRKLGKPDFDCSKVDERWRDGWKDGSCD
# Cytochrome P450 2C9 [17] = target: T1, Cytochrome P450 2C9; remark: listed apart in the source
# Cytochrome P450 3A4 = Cytochrome P450 3A4 (Homo sapiens, UniProt P08684);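 further: CYP3A4 tested as one member of a cytochrome P450 panel screen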
# Cytochrome P450 3A4, sequence (P08684 whole entry): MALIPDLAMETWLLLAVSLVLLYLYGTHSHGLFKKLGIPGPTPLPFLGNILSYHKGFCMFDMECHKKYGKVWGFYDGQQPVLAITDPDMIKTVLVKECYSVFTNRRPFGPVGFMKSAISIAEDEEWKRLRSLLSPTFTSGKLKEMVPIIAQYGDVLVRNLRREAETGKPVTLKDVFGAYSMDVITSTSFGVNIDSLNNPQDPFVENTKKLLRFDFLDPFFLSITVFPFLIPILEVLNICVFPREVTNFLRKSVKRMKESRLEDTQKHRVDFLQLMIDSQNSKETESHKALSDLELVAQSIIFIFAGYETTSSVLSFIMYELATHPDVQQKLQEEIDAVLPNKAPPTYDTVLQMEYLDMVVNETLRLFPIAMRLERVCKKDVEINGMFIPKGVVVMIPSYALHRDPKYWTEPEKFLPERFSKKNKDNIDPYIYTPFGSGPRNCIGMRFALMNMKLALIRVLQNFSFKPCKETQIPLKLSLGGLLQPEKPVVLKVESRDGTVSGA
structure (smiles),measurement,setting,value
COc1cccc(-c2nc3n(n2)C(c2ccc4c(c2)OCO4)C(C(N)=O)=C(C)N3)c1 (stereo unspecified),EC50,H4,> 120 µM (not active)
same,EC50,[1],31.6 µM (active)
same,EC50,[2],12.4 µM (active)
Cc1ccc(C(=O)ONC(=O)c2ccc(Cl)cc2)cc1[N+](=O)[O-],AC50,[3],4.03 µM (active)
COc1ccc(CNc2ncncc2-c2cccnc2)c(OC)c1,AC50,Cytochrome P450 2C9 [4],inconclusive
CCOC(=O)C1CCCN(C(=O)c2sc3nc(C)nc(N(CC)CC)c3c2C)C1 (stereo unspecified),EC50,[5],> 260 µM (inactive)
NC(=O)NC(=O)CC1SC(NN=C2CSC(=O)N2)=NC1=O (stereo unspecified),IC50,[6],> 66 µM (inactive)
same,IC50,Nonstructural protein 1,7.54 µM (active)
same,IC50,[7],> 66 µM (inactive)
CCCCC(=O)NN/C=C1\C(=O)NC(=O)N(Cc2ccco2)C1=O,IC50,Nonstructural protein 1,13.7 µM (active)
CCCCCCCCn1cnc2c(N)c(C)c(C)cc21,CC50,[8],> 40 µM (active)
COC(=O)/C=C1/N=C(Nc2nc(C)cc(C)n2)N(c2ccc(C)c(C)c2)C1=O,EC50,[5],> 260 µM (inactive)
COc1ccc(NC(=O)C(=O)NCC(c2ccco2)N2CCc3ccccc3C2)cc1 (stereo unspecified),CC50,[8],> 40 µM (active)
CC(C)(C)C(=O)NCC12C=CC(O1)C1C(=O)N(c3ccccc3)C(=O)C12 (stereo unspecified),AC50,[3],8.25 µM (active)
same,EC50,[5],> 260 µM (inactive)
COc1ccc(NC(=O)c2sccc2SCc2cccc(C(F)(F)F)c2)cc1,EC50,[9],2.61 µM (active)
same,EC50,[5],> 260 µM (inactive)
same,EC50,[10],> 60 µM (not active)
CC(=O)c1c(C)[n+]([O-])c2cc(F)c(F)cc2[n+]1[O-],CC50,[8],35.4 µM (active)
COc1ccc(-c2cc(=Nc3ccccc3)c3cc(C)ccc3o2)cc1.[O-][Cl+3]([O-])([O-])O,EC50,H4,9.82 µM (active)
same,EC50,[1],10.3 µM (active)
same,EC50,[2],12.7 µM (active)
Cc1ccc(S(=O)(=O)N(C)c2ccccc2C(=O)N2CCCC2)cc1,CC50,[11],> 40 µM (active)
Sc1nnc(-c2cc[nH]n2)n1-c1ccccc1Cl,EC50,H4,19.3 µM (active)
same,EC50,[1],24.1 µM (active)
same,EC50,[2],12.7 µM (active)
CC(C)c1cc(C(=O)Nc2cc(Br)ccc2O)no1,EC50,H4,> 120 µM (not active)
same,EC50,[1],> 120 µM (not active)
same,EC50,[2],14 µM (active)
COc1ccc(CNC(=O)Cn2cccc2C(=O)c2ccccc2C)cc1,EC50,H4,16.8 µM (active)
same,EC50,[1],10.2 µM (active)
same,EC50,[2],10.3 µM (active)
CCCn1c(C2CCCN2c2nc(-c3cccc(Br)c3)cs2)nc2ccccc21 (stereo unspecified),CC50,[12],20.9 µM (active)
same,EC50,H4,> 120 µM (not active)
same,EC50,[1],32.7 µM (active)
same,EC50,[2],5.7 µM (active)
CN(C)/C=C/C(=O)/C=C/c1cn(-c2ncc(C(F)(F)F)cc2Cl)c2ccccc12,AC50,[3],2.9 µM (active)
CCCCCCC(=O)N(O)C1CC(=O)N(c2ccc(C)cc2)C1=O (stereo unspecified),IC50,[6],> 66 µM (inactive)
same,AC50,[3],1.43 µM (active)
same,IC50,[7],> 66 µM (inactive)
O=C(NC(=S)NNC(=O)c1ccccc1O)c1ccccc1,EC50,[13],2.04 µM (active)
same,IC50,Nonstructural protein 1,14.2 µM (active)
same,EC50,Streptococcus,8.1 µM (active)
C(=C\n1nnc2ccccc21)/c1ccc[nH]1,EC50,H4,32 µM (active)
same,EC50,[1],9.95 µM (active)
same,EC50,[2],28.4 µM (active)
COc1ccc(Cl)cc1NC(=O)C12CCC(C)(C(=O)O1)C2(C)C (stereo unspecified),AC50,Cytochrome P450 1A2,28.2 µM (inconclusive)
same,AC50,Cytochrome P450 2C9 [4],inconclusive
O=C(C1CC1)N1CCCC(c2ccc(Cl)cc2)=N1,CC50,[8],> 40 µM (active)
Cc1ccc(C(=N)NOC(=O)N2c3ccccc3Sc3ccccc32)cc1,CC50,[14],96.4 µM (active)
same,CC50,[8],> 40 µM (active)
same,IC50,[15],134 µM (active)
Cn1c(-c2cccc([N+](=O)[O-])c2)cnc1NCc1cccc([N+](=O)[O-])c1,CC50,[14],100 µM (active)
CCC(=O)N1N=C(c2ccc(NS(C)(=O)=O)cc2)CC1c1ccc(C)cc1 (stereo unspecified),CC50,[11],> 40 µM (active)
CCc1ccc(S(=O)(=O)N(C(=O)c2ccncc2)c2ccc(OC(=O)c3ccncc3)cc2)cc1,AC50,[3],1.03 µM (active)
CC1=CC2OC3CC4OC(=O)C=CC=CC(=O)OCCC(C)C(O)C(=O)OCC2(CC1)C4(C)C31CO1 (stereo unspecified),AC50,[3],< 0.195 µM (active)
C/C(CC(=O)NCCCN1CCOCC1)=N\NC(=O)COc1ccc(Cl)cc1,AC50,Cytochrome P450 2D6,14.1 µM (inconclusive)
same,AC50,Cytochrome P450 2C9 [4],inconclusive
same,AC50,Cytochrome P450 2C19,10 µM (inconclusive)
CCOC(=O)c1c(C)c(/C=N/Nc2ccccc2)n(C)c1C,CC50,[11],> 40 µM (active)
Sc1nnc(-c2ccco2)n1/N=C/c1cccc(Cl)c1Cl,CC50,[14],96.5 µM (active)
same,IC50,[15],95.7 µM (active)
same,AC50,[16],4.84 µM (active)
O=[N+]([O-])c1ccc(/C=N/c2ccc(Cl)cc2Cl)s1,AC50,Cytochrome P450 2C9 [17],2.24 µM (inconclusive)
same,AC50,[3],7.83 µM (active)
O=C(N/N=C/c1ccccc1O)C1SCCCS1,IC50,Nonstructural protein 1,35.6 µM (active)
COc1ccccc1OCC(=O)N/N=C1/SCC(=O)N1Cc1ccccc1,AC50,Cytochrome P450 2D6,22.4 µM (inconclusive)
same,AC50,Cytochrome P450 3A4,0.891 µM (inconclusive)
same,AC50,Cytochrome P450 2C9 [4],inconclusive
O=C(CCCN1CC=C(n2c(=O)[nH]c3ccccc32)CC1)c1ccc(F)cc1 [DROPERIDOL],AC50,Cytochrome P450 2C9 [4],inconclusive
Cc1cc(O)c2c(c1)C(=O)c1cc(O)cc(O)c1C2=O [EMODIN],CC50,[8],20.1 µM (active)
